Source: patent publication US9949976B2, “Kinase inhibitor and use thereof” (Sihuan Pharmaceutical Holdings Group Ltd., priority 2013, dated 2018)
Where two headings read alike, the source gives them in different places.

Assays:
[1] = Pharmacokinetics in nude mouse (IV and PO); type: in vivo; details: female, BALB/c nude, plasma; for Vd: read-out: Vss; for bioavailability: read-out: F (absolute bioavailability)
Description: Test animal: female nude mouse (BALB/c); control agent: 3 mice/administration route at each time point, weight: 22-25 g/mouse; Compound 1: 3 mice/administration route at each time point, weight: 22-25 g/mouse; Compound 6-1: 6 mice/administration route/test compound, weight: 18-26 g/mouse.
Control agent/Compound 1, IV administration group: before administration, 0.083, 0.25, 0.5, 1, 2, 4, 6, 8, 24, and 30 h after administration; PO administration group (10 mg/kg): before administration, 0.167, 0.5, 1, 2, 4, 6, 8, 24, and 30 h after administration.
Compound 1, PO administration group (100 mg/kg): 0.167, 0.5, 1, 2, 4, 6, 8, 24, 30, and 48 h after administration.
Compound 6-1, IV administration group (2.5 mg/kg) and PO administration group (10 mg/kg): 0.083, 0.25, 0.5, 1, 2, 4, 6, 8 and 24 h after administration; Compound 6-1, PO administration group (100 mg/kg): 0.083, 0.25, 0.5, 1, 2, 4, 6, 8, 24, 30, 48 h after administration.
Control agent/Compound 1: 300 μL whole blood was collected from intraocular canthus at each time point, and was centrifuged at 8000 r/min for 6 min in a high speed centrifuge to separate the plasma; the plasma was stored in a refrigerator at −80° C. Compound 6-1: 60 μL whole blood was collected from intraocular canthus at each time point, and was placed in an anticoagulation tube containing anticoagulant agent K2EDTA; the blood sample was centrifuged at 8000 r/min for 6 min to obtain a plasma sample.
The plasma samples of control agent and compound 1 were analyzed by precipitation of protein: to 50 μL plasma, 200 μL internal standard (acetonitrile solution containing 500 ng/mL Warfarin) was added; the resultant mixture was vortexed for 3 min at 1500 r/min, and centrifuged for 5 min at 13000 r/min; to 100 μL supernatant, 400 μL water was added; the resultant mixture was mixed homogeneously under vortexing and analyzed by LC-MS/MS.
The plasma sample of compound 6-1 was analyzed by precipitation of protein: to a suitable amount of plasma, a given volume of internal standard solution was added; the resultant mixture was vortexed and centrifuged; the supernatant was diluted by adding a given volume of water; the resultant mixture was mixed homogeneously under vortexing and analyzed by LC-MS/MS.

[2] = In vivo assay for blood brain barrier permeability in rat; details: male, SD, 30 mg/kg, PO
Description: Test animal: male SD rat, 3 rats/test compound/time point, weight: 250-300 g/rat
After separate PO administration of control agent and compound 1, blood was collected by cardiac puncture at 2, 4, 24 and 48 h; about 8 ml whole blood was collected, and placed in a centrifuge tube containing K2EDTA anticoagulant agent; cerebrospinal fluid and brain tissue were also collected at the same time, 3 rats at each time point. The collected whole blood was centrifuged at 3000 r/min at 4° C. in a high speed centrifuge for 10 min to separate the plasma; and the plasma was stored in a refrigerator at −80° C. After sample collection, the concentrations of control agent and compound 1 in plasma, brain tissue and cerebrospinal fluid were determined, respectively.
The plasma samples of control agent and compound 1 were analyzed by precipitation of protein: the test samples were taken from the refrigerator (−80° C.), thawed at room temperature, and then vortexed for 3 min; to 30 μL plasma, 200 μL internal standard (acetonitrile solution containing 25 ng/mL PD0332991) was added; the resultant mixture was vortexed for 10 min at 1500 r/min, and centrifuged at 4000 r/min for 20 min; to 100 μL supernatant, 100 μL water was added; the resultant mixture was mixed homogeneously under vortexing and analyzed by LC-MS/MS.
The brain tissue and cerebrospinal fluid samples for control agent and compound 1 were analyzed by precipitation of protein: the test samples were taken from the refrigerator (−80° C.), thawed at room temperature, and then vortexed for 3 min; to 20 μL homogenated brain tissue sample, 200 μL internal standard (a solution of methanol and water at 1:1 containing 40 ng/mL dextromethorphan and 50 ng/mL dextrorphan) was added; the resultant mixture was vortexed for 3 min at 1500 r/min, and centrifuged at 4° C., 4000 g for 5 min; to 100 μL supernatant, 50 μL 0.1% formic acid-water was added; the resultant mixture was mixed homogeneously under vortexing and analyzed by LC-MS/MS. Cerebrospinal fluid sample was treated by the same way as the homogenated brain tissue sample.

SMILES	AUC(0-t) ([1]; IV, 5 mg/kg)	clearance ([1]; IV, 5 mg/kg)	Vd ([1]; IV, 5 mg/kg)	AUC(0-t) ([1]; PO, 10 mg/kg)	Cmax ([1]; PO, 10 mg/kg)	Tmax ([1]; PO, 10 mg/kg)	bioavailability ([1]; PO, 10 mg/kg)	AUC(0-t) ([1]; PO, 100 mg/kg)	Cmax ([1]; PO, 100 mg/kg)	Tmax ([1]; PO, 100 mg/kg)	bioavailability ([1]; PO, 100 mg/kg)	AUC(0-t) ([2]; dose 30, brain tissue)	Cmax ([2]; dose 30, brain tissue)	Tmax ([2]; dose 30, brain tissue)	AUC(0-t) ([2]; dose 30, cerebrospinal fluid)	Cmax ([2]; dose 30, cerebrospinal fluid)	Tmax ([2]; dose 30, cerebrospinal fluid)	AUC(0-t) ([2]; dose 30, plasma)	Cmax ([2]; dose 30, plasma)	Tmax ([2]; dose 30, plasma)
CCN1CCN(Cc2cnc(Nc3cc(-c4cc(F)c5nc(C)n(C(C)C)c5c4)c(F)cn3)nc2)CC1 [Compound 1, 5-((4-ethylpiperazin-1-yl)methyl)-N-(5-fluoro-4-(4-fluoro-1-isopropyl-2-methyl-1H-benzo[d]imidazol-6-yl)pyridin-2-yl)pyrimidin-2-amine]	2080 ng·h/mL	38.2 mL/min/kg	4.61 L/kg	2760 ng·h/mL	675 ng/mL	2 h	65.5%	33900 ng·h/mL	3080 ng/mL	2 h	77.9%	12100 ng·h/mL	535 ng/mL	4 h	1290 ng·h/mL	106 ng/mL	4 h	49200 ng·h/mL	2610 ng/mL	4 h
CCN1CCN(Cc2ccc(Nc3ncc(F)c(-c4cc(F)c5nc(C)n(C(C)C)c5c4)n3)nc2)CC1 [LY2835219, reference compound]	1590 ng·h/mL	50.2 mL/min/kg	5.79 L/kg	1310 ng·h/mL	368 ng/mL	0.5 h	41.1%					18100 ng·h/mL	673 ng/mL	4 h	451 ng·h/mL	11.8 ng/mL	4 h	40500 ng·h/mL	1500 ng/mL	4 h
